Measurements taken from patent publication US20250144054A1, “SMALL MOLECULE STAT3 INHIBITOR FOR TREATING TRIPLE NEGATIVE BREAST CANCER” (UNIVERSITY OF MARYLAND, BALTIMORE, priority 2022, published 2025).

How the values were obtained:
P-STAT3 (Y705) = assay: Immunofluorescence staining of P-STAT3 (Y705) localization in SUM159 cells; type: cell-based, human; settings: 8 hours, vs DMSO
Description: (§1) (A) The chemical structures of LLL12B and LLL12. The carbamate ester bond of LLL12B is hydrolytically cleaved by the tumor-associated plasmin to release LLL12. (B) SUM159 cells were seeded in a 6-well plate and treated with LLL12B for 8 hours. Cells were stained with Phospho-Stat3 (Tyr705) and DAPI (indicated by arrows). Green: P-STAT3 (Y705); Blue: DAPI. T47D (C) and MDA-MB-231 (D) breast cancer cells were pretreated with DMSO or LLL12B in a serum-free medium for 2 hours and stimulated with 50 ng/ml of IL-6, IFN-γ, or EGF for additional 30 minutes. Cells were collected and analyzed by Western blot. GAPDH served as a protein loading control.
Immunofluorescence staining. SUM159 cells were seeded in a 6-well plate and treated with LLL12B or DMSO for 8 hours. Cells were fixed with 4% paraformaldehyde (PFA) for 15 minutes at room temperature and then permeabilized with ice-cold 100% methanol for 10 minutes at −20° C. After blocking in 3% Bovine Serum Albumin (BSA)/0.1% Triton X-100, cells were incubated with rabbit anti-Phospho-Stat3 (Tyr705) (1:100, Cell Signaling Technology, Danvers, MA, USA) overnight at 4° C., then with secondary antibody for 1 hour at room temperature. Cells were photographed using a Leica fluorescence microscope (Leica Microsystems Inc, Deerfield, IL, USA).

STAT1 = assay: IFN-γ induced STAT1 phosphorylation, Western blot, T47D cells; type: cell-based, human; settings: pretreated 2 hours, 50 ng/ml IFN-γ 30 minutes
Description: as §1
(§2) Western blot. Cells were collected and total protein was extracted using cell lysis buffer (Cell Signaling Technology, Danvers, MA, USA). Protein concentration was determined using the Pierce BCA Protein Assay Kit (Thermo Fisher Scientific, Waltham, MA, USA) according to the manufacturer's instructions. Equal amounts of protein were separated by 10% SDS-PAGE gels and transferred to PVDF membranes. Membranes were blocked in 5% non-fat milk at room temperature and probed with specific antibodies P-STAT3 (Y705), STAT3, Cyclin D1, Cleaved Caspase-3, P-STAT1 (Y701), STAT1, P-ERK, ERK or GAPDH (1:1000, Cell Signaling Technology, Danvers, MA, USA) at 4° C. overnight. […]

ERK = assay: EGF induced ERK phosphorylation, Western blot, MDA-MB-231 cells; type: cell-based, human; settings: pretreated 2 hours, 50 ng/ml EGF 30 minutes
Description: as §1, §2

caspase-3/7 = assay: Caspase-3/7 activity assay, 4T1 cells; type: cell-based, murine; settings: 4T1, 5 hours, vs DMSO
Description: Caspase-3/7 activity assay. The Caspase-3/7 Fluorescence Assay Kit (Cayman, Ann Arbor, MI, USA) was used to detect the activation of caspase-3/7 and the assay was performed according to the manufacturer's instructions. Briefly, MDA-MB-231, SUM159, and 4T1 cells were seeded in a 96-well plate in triplicate. After overnight incubation, cells were treated with either LLL12B or DMSO for 5 hours. Cells were lysed and processed to measure caspase-3/7 activity and the fluorescence intensity was read (excitation=485 nm; emission=535 nm).

SUM159 cells [1] = assay: Annexin V and PI flow cytometry, SUM159 cells; type: cell-based, human; settings: SUM159, 8-12 hours, vs DMSO
Description: (§3) Flow cytometry analysis. Flow cytometry was performed to detect cell apoptosis. The APC Annexin V Apoptosis Detection Kit (Biolegend, San Diego, CA, USA) was used for Annexin V staining. Cells were seeded in a 35 mm culture dish at a density of 1×10^5 cells/dish. After overnight incubation, cells were treated with DMSO or LLL12B for 8-12 hours. Cells were harvested and stained with Annexin V-APC and propidium iodide (PI) according to the manufacturer's instructions. After staining, cells were counted using a FACSCanto II flow cytometer (BD Biosciences, San Jose, CA, USA).

4T1 cells [2] = assay: Annexin V and PI flow cytometry, 4T1 cells; type: cell-based, murine; settings: 4T1, 8-12 hours, vs DMSO
Description: as §3

SUM159 cells [3] = assay: Colony formation assay, SUM159 cells; type: cell-based, human; settings: SUM159, 24 hours treatment, 7 days drug-free, vs DMSO
Description: (§4) Colony formation assay. MDA-MB-231, SUM159, and 4T1 cells were seeded in a 6-well plate at a density of 1000 cells/well and treated with DMSO or LLL12B for 24 hours, and then cultured in a drug-free culture medium for 7 days. Colonies were fixed with methanol for 30 min and stained with 1% crystal violet in 25% methanol for 2 hours at room temperature.

4T1 cells [4] = assay: Colony formation assay, 4T1 cells; type: cell-based, murine; settings: 4T1, 24 hours treatment, 7 days drug-free, vs DMSO
Description: as §4

HPAC cells = assay: MTT cell viability assay, HPAC cells; type: cell-based, human; settings: 3 days
Description: The human pancreatic cancer cell lines HPAC and PANC-1 were seeded and allowed to attach for 24 hours. Then cells were treated with different concentrations of LLL12B for 3 days and the cell viability was determined by MTT cell viability assay.

SUM149 xenograft = SUM149 xenograft model in vivo
Description: Next, the efficacy of LLL12B and Talazoparib was examined in the SUM149 xenograft model in vivo. […] V: Vehicle; L: LLL12B; T: Talazoparib. Western blot analysis further confirmed the inhibition of p-STAT3 in LLL12B and combination treated tumors (FIG. 16D).

## CN(C)C(=O)Oc1cccc2c1C(=O)c1cccc(S(N)(=O)=O)c1C2=O [LLL12B]
P-STAT3 (Y705)
  distribution of P-STAT3 (Y705) in the nucleus: blocked
STAT1
  induction of P-STAT1 (Y701) stimulated by IFN-γ: did not inhibit
ERK
  inhibition of P-ERK stimulated by EGF: little effect
caspase-3/7
  activation of caspase-3/7: induced the activation
SUM159 cells [1]
  percentage of apoptotic cells: significantly increased
4T1 cells [2]
  percentage of apoptotic cells: significantly increased
SUM159 cells [3]
  colony numbers: significant reduction
4T1 cells [4]
  colony numbers: significant reduction
HPAC cells
  cell viability: significantly inhibits
SUM149 xenograft
  p-STAT3 in tumors, Western blot: inhibition
